Consider four compounds from US10681909B2, “Herbicidal triazoles” (FMC Corporation, priority 2014, dated 2020).

One test has as its system foxtail, giant. Briefly: Test A postemergence. Type of test: in vivo, Setaria faberii. The conditions noted are these: Setaria faberi, post-emergence, 240 h, 0 to 100 scale (0 no effect, 100 complete control), approx. 10 d, read-out: Plant response rating, Foxtail, Giant; for pest or weed control at 125 g/ha: 125 g ai/ha; for pest or weed control at 500 g/ha: 500 g ai/ha. The procedure, abridged:
(§1)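 Plant seeds in loam soil blended with sand, then apply test chemical preemergence as a directed soil spray; in parallel, spray potted seedlings (one- to two-leaf, 2 to 10 cm) postemergence. Both treatments use a non-phytotoxic solvent mixture with surfactant.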

Another test deals with ducksalad. As to the kind of experiment: Test B flooded paddy test. Type of test: in vivo, Heteranthera limosa. Conditions: Heteranthera limosa, 360 h, 125 g ai/ha, applied to paddy water at 2-leaf stage, visual rating after 13 to 15 d, scale 0 (no effect) to 100 (complete control), read-out: Plant response rating, Ducksalad, Flood. The gist of the method:
(§2)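 Pots were flooded to 3 cm above the soil at treatment, and compounds were applied directly into the paddy water. That depth was held throughout. After 13 to 15 d in a greenhouse, plants were rated visually against untreated controls.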

The test system of test [1] is barnyardgrass. Briefly: Test A postemergence. Conditions: Echinochloa crus-galli, post-emergence, 240 h, 0 to 100 scale (0 no effect, 100 complete control), approx. 10 d, read-out: Plant response rating, Barnyardgrass; for pest or weed control at 125 g/ha: 125 g ai/ha; for pest or weed control at 500 g/ha: 500 g ai/ha. Type of test: in vivo, Echinochloa crus-galli. The gist of the method: as §1

The subject of another test is rice. Briefly: Test B flooded paddy test. The conditions noted are these: Oryza sativa, 360 h, 125 g ai/ha, applied to paddy water at 2-leaf stage, visual rating after 13 to 15 d, scale 0 (no effect) to 100 (complete control), read-out: Plant response rating, Rice, Flood. The test is classed as in vivo, Oryza sativa. The procedure, abridged:
as §2

Another test relates to pigweed. Briefly: Test A postemergence. Type of test: in vivo, Amaranthus retroflexus. Conditions: Amaranthus retroflexus, post-emergence, 240 h, 0 to 100 scale (0 no effect, 100 complete control), approx. 10 d, read-out: Plant response rating, Pigweed; for pest or weed control at 125 g/ha: 125 g ai/ha; for pest or weed control at 500 g/ha: 500 g ai/ha. The gist of the method:
as §1

The next test deals with sedge, umbrella. Briefly: Test B flooded paddy test. The test is classed as in vivo, Cyperus difformis. Conditions: Cyperus difformis, 360 h, 125 g ai/ha, applied to paddy water at 2-leaf stage, visual rating after 13 to 15 d, scale 0 (no effect) to 100 (complete control), read-out: Plant response rating, Sedge, Umbrella, Flood. The procedure, abridged: as §2
Test [2] relates to barnyardgrass. As to the kind of experiment: Test B flooded paddy test. Type of test: in vivo, Echinochloa crus-galli. Conditions: Echinochloa crus-galli, 360 h, 125 g ai/ha, applied to paddy water at 2-leaf stage, visual rating after 13 to 15 d, scale 0 (no effect) to 100 (complete control), read-out: Plant response rating, Barnyardgrass, Flood. The gist of the method:
as §2

A further test deals with corn. As to the kind of experiment: Test A postemergence. Type of test: in vivo, Zea mays. Conditions: Zea mays, post-emergence, 240 h, 0 to 100 scale (0 no effect, 100 complete control), approx. 10 d; for Corn plant response rating (crop injury, 0 = no effect, 100 = complete kill) at 125 g/ha: 125 g ai/ha; for Corn plant response rating (crop injury, 0 = no effect, 100 = complete kill) at 500 g/ha: 500 g ai/ha. The gist of the method:
as §1

Regarding `CCn1nc(-c2ccc(F)cc2)nc1C(O)c1ccnc(C(F)(F)F)c1` (stereo not drawn) [Compound 15, α-[1-Ethyl-3-(4-fluorophenyl)-1H-1,2,4-triazol-5-yl]-2-(trifluoromethyl)-4-pyridinemethanol], the pest or weed control at 125 g/ha is 0% in the test with foxtail, giant; 0% with ducksalad; 0% with barnyardgrass [1]; 10% in the test with pigweed; 0% with sedge, umbrella; 0% in the test with barnyardgrass [2]. Besides, the pest or weed control at 500 g/ha is 10% in the test on foxtail, giant; 10% with barnyardgrass [1]; 70% with pigweed. Besides, the plant injury at 125 g/ha in the test on rice came out at 0%. Besides, the Corn plant response rating (crop injury, 0 = no effect, 100 = complete kill) at 125 g/ha in the test with corn was 0%. This compound also came in with a Corn plant response rating (crop injury, 0 = no effect, 100 = complete kill) at 500 g/ha in the test with corn of 10%.
Take `CCCn1nc(-c2ccc(F)cc2)nc1Cc1ccnc(C(F)(F)F)c1` [Compound 17, 4-[[3-(4-fluorophenyl)-1-propyl-1H-1,2,4-triazol-5-yl]methyl]-2-(trifluoromethyl)pyridine]: the pest or weed control at 125 g/ha is 90% with foxtail, giant; 70% with ducksalad; 70% in the test with barnyardgrass [1]; 100% in the test on pigweed; 80% in the test with sedge, umbrella; 10% with barnyardgrass [2]. The pest or weed control at 500 g/ha is 90% in the test with foxtail, giant; 90% with barnyardgrass [1]; 100% with pigweed. The plant injury at 125 g/ha in the test with rice was 15%. In the test on corn, this compound returned a Corn plant response rating (crop injury, 0 = no effect, 100 = complete kill) at 125 g/ha of 50%. The Corn plant response rating (crop injury, 0 = no effect, 100 = complete kill) at 500 g/ha with corn was 70%.
For `CCn1nc(-c2ccc(F)cc2)nc1C(=O)c1ccnc(C(F)(F)F)c1` [Compound 19, [1-ethyl-3-(4-fluorophenyl)-1H-1,2,4-triazol-5-yl][2-(trifluoromethyl)-4-pyridinyl]methanone], the pest or weed control at 125 g/ha with foxtail, giant came out at 0%; with ducksalad, 0%; in the test with barnyardgrass [1], 0%; with pigweed, 0%; with sedge, umbrella it was 0%; with barnyardgrass [2], 0%. For the same compound, the pest or weed control at 500 g/ha with foxtail, giant amounted to 0%; in the test on barnyardgrass [1], 0%; in the test on pigweed, 30%. For the same compound, in the test on rice, the plant injury at 125 g/ha stood at 0%. Besides, in the test with corn, the Corn plant response rating (crop injury, 0 = no effect, 100 = complete kill) at 125 g/ha was 0%. Also, in the test with corn, the Corn plant response rating (crop injury, 0 = no effect, 100 = complete kill) at 500 g/ha stood at 20%.
With `CS(=O)(=O)c1nc(-c2ccc(F)cc2)nn1Cc1ccnc(C(F)(F)F)c1` [Compound 29, 4-[[3-(4-fluorophenyl)-5-(methylsulfonyl)-1H-1,2,4-triazole-1-yl]methyl]-2-(trifluoromethyl)pyridine], the pest or weed control at 125 g/ha with foxtail, giant is 0%; in the test with ducksalad, 0%; with barnyardgrass [1], 0%; in the test on pigweed, 0%; in the test with sedge, umbrella it was 0%; in the test on barnyardgrass [2] it was 0%. Further, the pest or weed control at 500 g/ha with foxtail, giant amounted to 0%; with barnyardgrass [1], 0%; in the test with pigweed it was 0%. In addition, the plant injury at 125 g/ha in the test with rice is 0%. This compound also had a Corn plant response rating (crop injury, 0 = no effect, 100 = complete kill) at 125 g/ha in the test with corn of 0%. Also, the Corn plant response rating (crop injury, 0 = no effect, 100 = complete kill) at 500 g/ha with corn came to 0%.
